Consider three compounds from patent US11261179B2, “Small molecules” (University of Dundee, priority 2017, dated 2022).

Assay [1] addresses pVHL19 (VCB complex: VHL with Elongin B and Elongin C) (Homo sapiens, UniProt P40337). The assay is described as follows: ITC titration against VCB, short VHL isoform. It is filed as binding. The following applies: ITC; for Kd / ΔG / ΔH / α (cooperativity/avidity) / −TΔS: pVHL19; for n (stoichiometry): pVHL19, 25° C. As to the method:
(§1) Titrations were performed on an ITC200 micro-calorimeter (GE Healthcare). […] The final DMSO concentration was 0.15% v/v. VBC protein experiments were carried out in a buffer containing 20 mM Bis-tris propane, 150 mM NaCl, 1 mM TCEP, 0.15% v/v DMSO, pH 7.4. The titrations consisted of 19 injections of 2 μL compounds solution (150 μM, in the syringe) at a rate of 2 s/μL at 120 s time intervals into the VCB protein solution (20 μM, in the cell). An initial injection of compound solution (0.4 μL) was made and discarded during data analysis. All experiments were performed at 25° C., whilst stirring the syringe at 600 rpm. The data were fitted to a single binding site model to obtain the stoichiometry n, the dissociation constant Kd and the enthalpy of binding ΔH using the Microcal LLC ITC200 Origin software provided by the manufacturer.

Assay [2] concerns the target T1, pVHL30 (long isoform of VHL) (Homo sapiens, UniProt P40337).
T1 construct: endogenous in cells; host or cells: HeLa
The assay is described as follows: Western blot of VHL levels in HeLa cells. Particulars: for depletion/degradation of VHL (pVHL30): 1 μM, 10 h. Format: cell-based. As to the method:
(§2) For single time point treatment experiments, cells were transferred in 6-well plates with 5×10^5 cells per well in 2 ml media in order to achieve 80% confluence the following day. Stock concentrations of compounds were prepared by solubilizing the powder in 100% v/v DMSO to the final desired stock concentration.
(§3) On the day of treatment, all compound samples were prepared as 100-fold concentrated compound solution using DMEM just before treatment. The experiment samples (20 μL) were added to the 6 well plate containing 2 ml of media. The final DMSO concentration was 0.1% v/v. Cells were incubated at 37° C. and 5% CO2 for the desired time before harvesting.
(§4) For time dependent treatment, cells were transferred in 6-well plates with 3×10^5 cells per well in 2 ml media. Samples were prepared as detailed above or the single time point experiments. Treatment was conducted at given time points prior to harvest.
Cells were transferred in 6-well plates with 5×10^5 cells per well in 2 ml media in order to achieve 80% confluence the day after. At t=0, MLN4924 was added into the desired wells at 3 μM final concentration and 0.1% v/v of DMSO. DMSO (0.1% v/v final conc.) was added to the remaining wells in order to match identical conc. of vehicle in all wells. At t=3 h, MG 132 was added into the desired wells at 50 μM final conc. and 0.1% v/v of DMSO. DMSO (0.1% v/v final conc.) was added to the remaining wells in order to achieve the same conc. of vehicle in all the wells. […] DMSO (0.1% v/v final conc.) was added to the remaining wells in order to obtain the same conc. of vehicle in all the wells. The total final concentration of DMSO was therefore 0.3% v/v. Plates were incubated for 4 h at 37° C. and 5% CO2 before harvesting.
Cells were transferred in 6-well plates with 5×10^5 cells per well in 2 ml media in order to achieve 80% confluence the day after. […] Plates were incubated for the desired time at 37° C. and 5% CO2 before harvesting.
For this experiments, cells were transferred in 6-well plates with 5×10^5 cells per well in 2 ml media in order to achieve 80% confluence the day after. […] Plates were incubated for the desired time at 37° C. and 5% CO2 before harvesting.
(§5) Cells were lysed in lysis buffer (20 mM Tris pH 8, 150 mM NaCl, 1% Triton x100) and a protease inhibitor cocktail (Roche) per 10 ml buffer. For protein extracts, the dishes were placed on ice. The media was aspirated and the tissue layer washed twice with ice-cold phosphate buffer saline (PBS). Lysis buffer (120 μl) was added and the cells detached from the surface with a cell scraper. After removal of the insoluble fraction by centrifugation, the protein concentration of the supernatant was determined by Pierce™ Coomassie (Bradford) Protein Assay Kit. Protein extracts were fractionated by SDS-PAGE on 4-12% Tris-Acetate NuPage® Novex® (Life Technologies) polyacrylamide gels and transferred to a nitrocellulose membrane using wet transfer. The membrane was then blocked with 5% w/v Bovine serum albumin (BSA) in Tris-buffered saline (TBS) with 0.1% w/v Tween-20. For detecting proteins the following primary antibodies in the given concentrations were used: anti-β-Actin (Cell Signaling Technology, 4970S, 13E5) 1:2000, anti-VHL (Cell Signaling Technology, #68547) 1:1000, anti-Hif-1α (BD Biosciences, 610959, clone 54) 1:1000, anti-hydroxy-HIF-1α (Hyp564) (Cell Signaling Techonology; #3434) 1:1000, anti-PHD2 (Bethyl Laboratories; A300-322A) 1:1000, anti-PHD3 (Bethyl Laboratories; A300-327A) 1:1000, anti-CRBN (Proteintech; 11435-1-AP) 1:1000.
(§6) Following incubation with a horseradish peroxidase-conjugated secondary antibody (Cell Signaling Technology), the signal was developed using enhanced chemiluminescence (ECL) Western Blotting Detection Kit (Amersham) on Amersham Hyperfilm ECL film (Amersham).
Band quantification was performed using ImageJ software and reported as relative amount as ratio of the each protein band relative to the lane's loading control. […]

For assay [3], the system named is HIF-1α / hydroxylated HIF-1α (Hdy-HIF-1α). The assay is described as follows: Western blot of HIF-1α and Hdy-HIF-1α levels in HeLa cells. Particulars: HeLa, 1 μM, 10 h. It is filed as cell-based, Human. How it is done: as §2, §3, §4, §5, §6
(§7) Band quantification was performed using ImageJ software and reported as relative amount as ratio of the each protein band relative to the lane's loading control. The values obtained were then normalized to 0.1% DMSO vehicle control.
(In general: In western blotting, separated proteins are transferred to a membrane and probed.)

Assay [4] deals with T2, pVHL30 (Homo sapiens, UniProt P40337).
T2 construct: endogenous in cells; host or cells: U2OS
The assay is described as follows: Western blot of VHL levels in U2OS cells. Format: cell-based. Particulars: for profile of cellular activity: 10 h, 1 nM-100 μM; for cellular efficacy at longer time points / time of treatment to complete degradation of pVHL30: time course. As to the method:
as §2, §3, §4, §5, §6, §7

Assay [5] has as its target VCB complex (Homo sapiens, UniProt P40337). As to the kind of experiment: Size exclusion chromatography of VCB complex formation. Particulars: SEC; for shift of VCB peak / ternary complex formation: VCB 50 μM, compound 30 μM. It is filed as binding. As to the method:
SEC experiments were carried out in a AKTA pure system (GE Healthcare) at room temperature. The oligomeric state of the VCB complex in solution was analyzed by gel filtration in a buffer containing 20 mM Bis-Tris (pH 7), 150 mM NaCl and 1 mM 1,4-dithiothreitol (DTT) using a Superdex 200 Increase 10/300 GL column (GE Healthcare) calibrated with globular proteins of known molecular weight (GE Healthcare, 28-4038-41/42). […] Sample volume for each injection was 200 μL, and the flow rate was 0.5 mL/min. Peak elution was monitored using ultraviolet absorbance at 280 nm.
A general note: SEC sorts molecules by how far they enter the pores of the column.

The target of assay [6] is T3, VCB (biotinylated VCB and His-VCB) (Homo sapiens, UniProt P40337).
T3 construct: His tag (printed 'Hiss-VCB'); biotin (chemical labelling with NHS-PEG4-biotin); on the other VCB population
The assay is described as follows: AlphaLISA proximity assay of ternary complex formation. Format: binding. Particulars: VCB 20 nM each, 0.5 to 200 nM Homo-PROTAC. How it is done:
The VCB complex was mixed with EZ-link NHS-PEG4-biotin (Thermo Scientific) in a 1:1 molar ratio and incubated at room temperature for 1 h. The reaction was quenched using 1 M Tris-HCl, pH 7.5, and unreacted NHS-biotin was removed with a PD-10 MiniTrap desalting column (GE Healthcare) equilibrated with 20 mM HEPES, pH 7.5, 150 mM NaCl and 1 mM DTT.
All assays were performed at room temperature in 384-well plates with a final assay volume of 25 μL per well; plates were sealed with transparent film between addition of reagents. All reagents were prepared as 5× stocks diluted in 50 mM HEPES, pH 7.5, 100 mM NaCl, 0.1% (w/v) bovine serum albumin and 0.02% (w/v) 3-[(cholamidopropyl)dimethylammonio]-1-propanesulfonate (CHAPS). Biotinylated VCB (20 nM final) and Hiss-VCB (20 nM final) were incubated with a range of Homo-PROTAC concentrations (0.5 to 200 nM; three-in-five serial dilution) for 1 h. Anti-His acceptor beads (PerkinElmer, 10 μg/mL final) were added and plates were incubated for another hour. Streptavidin-coated donor beads (PerkinElmer, 10 μg/mL final) were added and plates were incubated for a final 1 h. Plates were read on a PHERAstar FS (BMG Labtech) using an optic module with an excitation wavelength of 680 nm and emission wavelength of 615 nm. Intensity values were plotted against PROTAC concentration on a logo scale.

In assay [7] the target is pVHL30 (VCB complex) (Homo sapiens, UniProt P40337). The assay is described as follows: ITC titration against VCB, long VHL isoform. It is filed as binding. As to the method: as §1
(In ITC the heat of successive injections is recorded.)

Several values for one entry are separate records, joined by “and”; a condition that tells them apart may be missing. Equal values may be shown once. Entries after “also recorded” stand apart in the source; their conditions may differ.

Chain of pVHL19 (VCB complex: VHL with Elongin B and Elongin C) (P40337 54-213): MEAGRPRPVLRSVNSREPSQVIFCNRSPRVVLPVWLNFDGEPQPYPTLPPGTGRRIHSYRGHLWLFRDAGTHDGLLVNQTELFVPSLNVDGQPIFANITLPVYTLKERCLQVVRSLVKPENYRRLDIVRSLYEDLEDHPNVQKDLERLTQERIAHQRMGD
Chain of pVHL19 (VCB complex: VHL with Elongin B and Elongin C) (Q15370 1-104 partner limits assumed): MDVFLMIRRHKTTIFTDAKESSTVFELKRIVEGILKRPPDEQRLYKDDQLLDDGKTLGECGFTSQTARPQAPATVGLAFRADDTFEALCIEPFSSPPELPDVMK
Chain of pVHL19 (VCB complex: VHL with Elongin B and Elongin C) (Q15369 17-112 partner limits assumed): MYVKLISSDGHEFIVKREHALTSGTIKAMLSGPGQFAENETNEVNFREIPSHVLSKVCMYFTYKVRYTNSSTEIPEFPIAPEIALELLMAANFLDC
Chain of VCB complex (P40337 54-213 limits assumed): as the sequence (P40337 54-213) above
Chain of VCB complex (Q15370 1-104 partner limits assumed): as the sequence (Q15370 1-104 partner limits assumed) above
Chain of VCB complex (Q15369 17-112 partner limits assumed): as the sequence (Q15369 17-112 partner limits assumed) above
T1 sequence (P40337 whole entry, canonical isoform): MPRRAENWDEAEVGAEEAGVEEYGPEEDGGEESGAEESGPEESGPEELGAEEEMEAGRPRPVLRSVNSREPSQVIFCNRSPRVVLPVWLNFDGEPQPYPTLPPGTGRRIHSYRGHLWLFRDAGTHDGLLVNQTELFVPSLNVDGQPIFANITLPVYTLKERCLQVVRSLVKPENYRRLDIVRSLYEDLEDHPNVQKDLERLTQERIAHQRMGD
Chain of pVHL30 (VCB complex) (P40337 whole entry, canonical isoform): as above
Chain of pVHL30 (VCB complex) (Q15370 1-104 partner limits assumed): as the sequence (Q15370 1-104 partner limits assumed) above
Chain of pVHL30 (VCB complex) (Q15369 17-112 partner limits assumed): as the sequence (Q15369 17-112 partner limits assumed) above
T2 sequence (P40337 whole entry): as the sequence (P40337 whole entry, canonical isoform) above
T3 sequence (P40337 54-213 limits assumed): as the sequence (P40337 54-213) above
T3 sequence (Q15370 1-104 partner limits assumed): as the sequence (Q15370 1-104 partner limits assumed) above
T3 sequence (Q15369 17-112 partner limits assumed): as the sequence (Q15369 17-112 partner limits assumed) above

The term Kd denotes a measure of binding affinity in units of concentration. Higher therefore signals a looser complex. Take `Cc1ncsc1-c1ccc(CNC(=O)[C@@H]2C[C@@H](O)CN2C(=O)[C@@H](NC(=O)COCCOCCOCCOCC(=O)N[C@H](C(=O)N2C[C@H](O)C[C@H]2C(=O)NCc2ccc(-c3scnc3C)cc2)C(C)(C)C)C(C)(C)C)cc1` [CM09, N^1,N^14-bis((S)-1-((2S,4R)-4-hydroxy-2-((4-(4-methylthiazol-5-yl)benzyl)carbamoyl)pyrrolidin-1-yl)-3,3-dimethyl-1-oxobutan-2-yl)-3,6,9,12-tetraoxatetradecanediamide]: in assay [1], the Kd was found to be 41 ± 15 nM, the ΔG is -10.3 ± 0.2 kcal/mol, the ΔH is -6.9 ± 0.3 kcal/mol and the “α (cooperativity/avidity)” value is reported as 4. Besides, in assay [1], the “−TΔS” value was -3.5 ± 0.5 kcal/mol and the “n (stoichiometry)” value was 0.98 ± 0.09. Also, the “degradation of pVHL over time” value in assay [2] (time course, also longer time points) is “Incomplete degradation”. Further, the HIF-1α level result in assay [3] is “slight increase”. In assay [4], the “profile of cellular activity” value was “consistent profile of cellular activity”, the “cellular efficacy at longer time points” value is given as “lost its cellular efficacy after 36 h” and the “time of treatment to complete degradation of pVHL30” value came to 2 h. In assay [5], the “shift of VCB peak / ternary complex formation” value was “formation of a ternary complex eluting at identical retention volume”. In addition, the “AlphaLISA intensity signal / complex formation” value in assay [6] was “negligible levels of complex formation”.
`Cc1ncsc1-c1ccc(CNC(=O)[C@@H]2C[C@@H](O)CN2C(=O)[C@@H](NC(=O)COCCOCCOCCOCCOCC(=O)N[C@H](C(=O)N2C[C@H](O)C[C@H]2C(=O)NCc2ccc(-c3scnc3C)cc2)C(C)(C)C)C(C)(C)C)cc1` [CM10, N^1,N^17-bis((S)-1-((2S,4R)-4-hydroxy-2-((4-(4-methylthiazol-5-yl)benzyl)carbamoyl)pyrrolidin-1-yl)-3,3-dimethyl-1-oxobutan-2-yl)-3,6,9,12,15-pentaoxaheptadecanediamide]: in assay [1], the affinity, expressed as Kd, was 32 ± 5 nM; the ΔG is -10.2 ± 0.1 kcal/mol; the ΔH is -9.4 ± 0.1 kcal/mol; the “α (cooperativity/avidity)” value worked out at 6. In assay [1], the “−TΔS” value is -0.8 ± 0.2 kcal/mol; the “n (stoichiometry)” value was 0.7 and 0.73 ± 0.01. Further, the “depletion/degradation of VHL (pVHL30)” value in assay [2] is listed as “total knockdown; also recorded: complete depletion”. For the same compound, in assay [3], the HIF-1α level entry is listed as “slight increase” and the “protein levels of Hdy-HIF-1α” value is “detectable albeit low increase”. Moreover, in assay [4], the “profile of cellular activity” value was “consistent profile of cellular activity”, the “cellular efficacy at longer time points” value is reported as “retained their efficacy” and the “time of treatment to complete degradation of pVHL30” value came out at 2 h. In assay [5], the “shift of VCB peak / ternary complex formation” value is listed as “formation of a ternary complex eluting at identical retention volume”. Besides, the “AlphaLISA intensity signal / complex formation” value in assay [6] was “negligible levels of complex formation”.
Turning to `Cc1ncsc1-c1ccc(CNC(=O)[C@H]2C[C@@H](O)CN2C(=O)[C@H](NC(=O)COCCOCCOCCOCCOCC(=O)N[C@H](C(=O)N2C[C@H](O)C[C@H]2C(=O)NCc2ccc(-c3scnc3C)cc2)C(C)(C)C)C(C)(C)C)cc1` [CMP99, N^1—((R)-1-((2R,4R)-4-hydroxy-2-((4-(4-methylthiazol-5-yl)benzyl)carbamoyl)pyrrolidin-1-yl)-3,3-dimethyl-1-oxobutan-2-yl)-N^17—((S)-1-((2S,4R)-4-hydroxy-2-((4-(4-methylthiazol-5-yl)benzyl)carbamoyl)pyrrolidin-1-yl)-3,3-dimethyl-1-oxobutan-2-yl)-3,6,9,12,15-pentaoxaheptadecanediamide], in assay [1], binding was put at a Kd of 146 ± 2 nM, the ΔG is -9.33 ± 0.06 kcal/mol, the ΔH is -6.23 ± 0.05 kcal/mol and the “−TΔS” value is -3.1 ± 0.7 kcal/mol. Also, in assay [1], the “n (stoichiometry)” value worked out at 0.964 ± 0.005. Further, in assay [7], the Kd came to 106 ± 10 nM, the “n (stoichiometry)” value is on record as 1.050 ± 0.004, the ΔG is -9.51 ± 0.05 kcal/mol and the ΔH was -5.19 ± 0.03 kcal/mol. For the same compound, the “−TΔS” value in assay [7] is -4.3 ± 0.1 kcal/mol. The “depletion/degradation of VHL (pVHL30)” value in assay [2] is given as “unable to induce degradation of VHL”. In assay [5], the “elution volume of small peak” value was found to be 13.5 mL and the “shift of VCB peak / ternary complex formation” value is on record as “no shift”.
